Earlier results in patent US6509043B1, “Composition comprising soy protein, dietary fibres and a phytoestrogen compound and use thereof in the prevention and/or treatment of pulmonary diseases” (Nutri Pharma ASA, priority 2001, dated 2003).

System: estrogenic effect
Conditions: in vitro; reported by Knight (Maturitas 22, 167-175 (1995))

O=c1c(-c2ccc(O)cc2)coc2cc(O)ccc12 [daidzein]
relative estrogenic potency as compared to estradiol (relative potency of 100): 0.013
